Data: article PMC9628821, “Discovery of Chitin Deacetylase Inhibitors through Structure-Based Virtual Screening and Biological Assays” (Journal of Microbiology and Biotechnology, 2022)

T1: AnCDA (Aspergillus nidulans chitin deacetylase) (Aspergillus nidulans, UniProt Q5AQQ0)
T1 construct: gene cda; recombinant AnCDA (GenBank XM_677557.1), expressed in Pichia pastoris, His-tag purified
T1 sequence (Q5AQQ0 19-237): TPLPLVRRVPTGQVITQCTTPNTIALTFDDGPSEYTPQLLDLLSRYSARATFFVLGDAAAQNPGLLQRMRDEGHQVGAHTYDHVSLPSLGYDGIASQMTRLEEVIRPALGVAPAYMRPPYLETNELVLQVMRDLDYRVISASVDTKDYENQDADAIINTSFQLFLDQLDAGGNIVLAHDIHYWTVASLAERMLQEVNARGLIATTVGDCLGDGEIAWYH

B1: AnCDA (Aspergillus nidulans chitin deacetylase) (Aspergillus nidulans FGSC A4) (protein)
chain: T1 sequence (Q5AQQ0 19-237)
notes: recombinant AnCDA (GenBank XM_677557.1), expressed in Pichia pastoris, His-tag purified

Tests used:
[1] = biological target: T1, AnCDA (Aspergillus nidulans chitin deacetylase); assay: acetate release assay on (GlcNAc)[…] with purified AnCDA; Dixon plot Ki (abstract also gives IC50 […]); assay type: biochemical
[2] = substrate: CC(=O)N[C@H]1[C@H](O[C@H]2[C@H](O)[C@@H](NC(C)=O)[C@H](O[C@H]3[C@H](O)[C@@H](NC(C)=O)C(O)O[C@@H]3CO)O[C@@H]2CO)O[C@H](CO)[C@@H](O[C@@H]2O[C@H](CO)[C@@H](O[C@@H]3O[C@H](CO)[C@@H](O)[C@H](O)[C@H]3NC(C)=O)[C@H](O)[C@H]2NC(C)=O)[C@@H]1O; assay: enzyme kinetics (Km) by acetate release assay; assay type: biochemical, Aspergillus nidulans; settings: Co2+ ([…] CoCl2 in assay) active site

| Molecule | Ki [1] [µM] | Km [2] [µM] |
| --- | --- | --- |
| Cc1ccc(-c2nc(CNC(=O)c3cccnc3Cl)no2)cc1 [J075-4187] | 31.6 | – |
| B1 | – | 72 |
